Where two headings read alike, the source gives them in different places.

One experiment relates to A549. Put plainly: Proliferation Assays (NSCLC cell line sensitivity). In kind it is cell-based.
For a further experiment, the system named is Calu-3. Put plainly: Proliferation Assays (NSCLC cell line sensitivity). The settings on record: ACA, KRAS WT, EGFR wt (HER2+). In kind it is cell-based.
A further experiment has as its system H1299. Put plainly: Proliferation Assays (NSCLC cell line sensitivity). The experiment is classed as cell-based. To be noted: KRAS WT, EGFR WT.
The test system of a further experiment is H157. Put plainly: Proliferation Assays (NSCLC cell line sensitivity). The experiment is classed as cell-based.
Another experiment relates to H1650. Put plainly: Proliferation Assays (NSCLC cell line sensitivity). To be noted: KRAS WT, EGFR E746 A750del (exon19). The experiment is classed as cell-based.
The test system of another experiment is H1703. Briefly: Proliferation Assays (NSCLC cell line sensitivity). To be noted: KRAS WT, EGFR WT. The experiment is classed as cell-based.
A further experiment has as its system H1975. Put plainly: Proliferation Assays (NSCLC cell line sensitivity). The experiment is classed as cell-based. The settings on record: ACA, KRAS WT, EGFR L858R, T790M.
A further experiment deals with H2009. Briefly: Proliferation Assays (NSCLC cell line sensitivity). In kind it is cell-based. To be noted: KRAS MUT, EGFR WT.
For a further experiment, the system named is H2122. Briefly: Proliferation Assays (NSCLC cell line sensitivity). In kind it is cell-based. The settings on record: KRAS MUT, EGFR WT.
For a further experiment, the system named is H2126. Put plainly: Proliferation Assays (NSCLC cell line sensitivity). In kind it is cell-based.
The test system of the next experiment is H226. Briefly: Proliferation Assays (NSCLC cell line sensitivity). The experiment is classed as cell-based. To be noted: KRAS WT, EGFR WT.
For the next experiment, the system named is H3255. Briefly: Proliferation Assays (NSCLC cell line sensitivity). The experiment is classed as cell-based. To be noted: EGFR L858R.
Another experiment relates to H441. Briefly: Proliferation Assays (NSCLC cell line sensitivity). In kind it is cell-based. To be noted: BAC, KRAS MUT, EGFR WT.
In another experiment the test system is H460. Put plainly: Proliferation Assays (NSCLC cell line sensitivity). In kind it is cell-based.
For the next experiment, the system named is H520. Briefly: Proliferation Assays (NSCLC cell line sensitivity). The experiment is classed as cell-based. To be noted: KRAS WT, EGFR WT.
The test system of the next experiment is HCC15. Put plainly: Proliferation Assays (NSCLC cell line sensitivity). To be noted: SQC, KRAS WT, EGFR WT. The experiment is classed as cell-based.
In the next experiment the test system is HCC95. Put plainly: Proliferation Assays (NSCLC cell line sensitivity). The experiment is classed as cell-based. The settings on record: SQC, KRAS WT, EGFR WT.
In another experiment the test system is NCI-H23. Put plainly: Proliferation Assays (NSCLC cell line sensitivity). The experiment is classed as cell-based.
For experiment [1], the system named is panel of NSCLC cell lines. Briefly: Proliferation Assays, panel of NSCLC cell lines. To be noted: various degrees of sensitivity. The experiment is classed as cell-based.
The next experiment relates to A549 xenografts. Briefly: A549 xenograft in nude mice. In kind it is in vivo, athymic nude mice. The settings on record: erlotinib 40 mg/kg 3× per week oral gavage, Compound 1 5 mg/kg/daily oral gavage, Day 26 to day 53. The source says:
(§1) A549 adenocarcinoma or H1975 cells in single cell suspension were implanted into the posterior flanks of athymic nude mice. […] For the A549 xenograft, the treatments were started on Day 26 after implantation and were stopped on day 53, while for the H1975 xenograft, the treatments were started on day 17 after implantation and were stopped on day 30.

A further experiment relates to H1975 xenografts. Put plainly: H1975 xenograft in nude mice. In kind it is in vivo, athymic nude mice. To be noted: erlotinib 40 mg/kg 3× per week oral gavage, Compound 1 5 mg/kg/daily oral gavage, day 17 to day 30.
Source text: as §1

On to `CO[C@H]1CC[C@H](N2C(=O)CNc3ncc(-c4ccc(C(C)(C)O)nc4)nc32)CC1` [Compound 1, 7-(6-(2-hydroxypropan-2-yl)pyridin-3-yl)-1-((1r,4r)-4-methoxycyclohexyl)-3,4-dihydropyrazino-[2,3-b]pyrazin-2(1H)-one], for which the IC50 (as a rule, the midpoint of a concentration-inhibition curve) in the experiment with A549 (A549, ACA, KRAS MUT G125, EGFR WT, read-out: IC50) worked out at 0.58 µM; in the experiment with Calu-3, 0.184 µM; in the experiment on H1299 (Large Cell Neuroendocrin), 3.09 µM; in the experiment on H157 (H157, SQC, KRAS MUT, EGFR WT), 2.61 µM; in the experiment with H1650 (ACA), 5.2 µM; with H1703 (SCC), 1.64 µM. Also, the IC50 in the experiment on H1975 came to 0.25 µM; with H2009 (ACA), 5.05 µM; in the experiment on H2122 (ACA), 1.59 µM; in the experiment on H2126 (H2126, ACA, KRAS WT, EGFR WT, read-out: IC50) it was 0.214 µM; with H226 (SQC), 1.98 µM; in the experiment with H3255 (ACA), 11.9 µM. The IC50 in the experiment with H441 (ACA) stood at 0.392 µM; with H460 (H460, LCC, KRAS MUT G61H, EGFR WT, read-out: IC50), 0.153 µM; in the experiment with H520 (SQC), 0.374 µM; in the experiment on HCC15 it was 6.37 µM; in the experiment with HCC95, 0.724 µM; with NCI-H23 (NCI-H23, ACA, KRAS MUT 12 mutation G12C, read-out: IC50) it was 3 µM. Further, the anti-proliferative activity result in experiment [1] is “demonstrated anti-proliferative activity”.

Turning to `C#Cc1cccc(Nc2ncnc3cc(OCCOC)c(OCCOC)cc23)c1` [Erlotinib, erlotinib], the IC50 with A549 (Homo sapiens, A549, read-out: IC50 (value in parentheses beside > 10 μM)) was 25.2 µM; in the experiment with A549 (Homo sapiens, A549, ACA, KRAS MUT G125, EGFR WT, read-out: IC50), more than 10 µM; in the experiment with Calu-3 (Homo sapiens), 7.09 µM; in the experiment with H1299 (Homo sapiens, NCI-H1299, Large Cell Neuroendocrin) it was more than 10 µM; with H157 (Homo sapiens, NCI-H157), more than 10 µM; in the experiment with H1650 (Homo sapiens, NCI-H1650, ACA), 2.84 µM. For the same molecule, the IC50 in the experiment on H1703 (Homo sapiens, NCI-H1703, SCC) was more than 10 µM; in the experiment with H2009 (Homo sapiens, NCI-H2009, ACA) it was 15.3 µM; with H2122 (Homo sapiens, NCI-H2122, ACA) it was more than 10 µM; with H2126 (Homo sapiens, NCI-H2126, read-out: IC50 (value in parentheses beside > 10 μM)) it was 19.8 µM; in the experiment on H2126 (Homo sapiens, NCI-H2126, H2126, ACA, KRAS WT, EGFR WT, read-out: IC50) it was more than 10 µM; in the experiment on H226 (Homo sapiens, NCI-H226, SQC), more than 10 µM. Moreover, the IC50 was 0.205 µM in the experiment with H3255 (Homo sapiens, NCI-H3255, ACA); more than 10 µM in the experiment with H441 (Homo sapiens, NCI-H441, ACA); 18 µM with H460 (Homo sapiens, NCI-H460, read-out: IC50 (value in parentheses beside > 10 μM)); more than 10 µM in the experiment on H460 (Homo sapiens, NCI-H460, H460, LCC, KRAS MUT G61H, EGFR WT, read-out: IC50); more than 10 µM with H520 (Homo sapiens, NCI-H520, SQC); more than 10 µM in the experiment with HCC15. In addition, the IC50 in the experiment with HCC95 (Homo sapiens) was 6.45 µM; in the experiment on NCI-H23 (Homo sapiens, NCI-H23, read-out: IC50 (value in parentheses beside > 10 μM)) it was 22.8 µM; in the experiment on NCI-H23 (Homo sapiens, NCI-H23, ACA, KRAS MUT 12 mutation G12C, read-out: IC50) it was more than 10 µM. Moreover, in [1], the anti-proliferative activity result was “demonstrated anti-proliferative activity”. For the same molecule, the “tumor growth during treatment” value with A549 xenografts was “resistant”; in the experiment on H1975 xenografts, “moderately sensitive”.
